We go through four compounds from patent publication US5830902A, “Quinuclidine derivative having tricyclic hetero condensed ring” (Yamanouchi Pharmaceutical Co., Ltd., priority 1995, dated 1998).

Structures can show the parent of a compound that is named as a salt. Where two headings read alike, the source gives them in different places.

Series [1] addresses T1, human squalene synthase (Homo sapiens, UniProt P37268).
T1 construct: endogenous in cells; host or cells: HepG2 human hepatoma cells (microsomal fraction)
T1 sequence (P37268 1-417): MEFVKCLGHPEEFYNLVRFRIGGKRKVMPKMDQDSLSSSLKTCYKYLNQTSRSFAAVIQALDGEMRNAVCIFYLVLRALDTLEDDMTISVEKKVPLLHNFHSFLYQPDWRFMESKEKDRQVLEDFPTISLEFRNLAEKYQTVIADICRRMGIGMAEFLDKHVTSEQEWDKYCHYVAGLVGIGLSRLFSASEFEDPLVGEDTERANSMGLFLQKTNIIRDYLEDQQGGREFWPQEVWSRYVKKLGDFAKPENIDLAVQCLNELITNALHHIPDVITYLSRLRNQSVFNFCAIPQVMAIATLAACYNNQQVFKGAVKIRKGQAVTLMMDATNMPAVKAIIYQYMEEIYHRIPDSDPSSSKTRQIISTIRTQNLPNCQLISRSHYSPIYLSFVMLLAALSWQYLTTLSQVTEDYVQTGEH
The experiment in a line: Test on human squalene synthase inhibition (HepG2 microsomal fraction). Type of series: biochemical. The procedure:
A. Test on human squalene synthase inhibition
(1) Preparation of squalene synthase from human hepatoma cells
Human hepatoma cells (HepG2 cells) were cultured using DMEM containing 10% FBS until a single layer was formed, and then the medium was replaced by DMEM supplemented with 10% human lipoprotein deficient serum (LPDS) to carry out 24 hours of culturing. The cells were washed twice with PBS, collected using a Rubber Policeman and subjected to centrifugation. The resulting precipitate was homogenized in five volumes of 50 mM Hepes buffer (pH 7.5) containing 5 mM EDTA and centrifuged at 20,000×g for 15 minutes. The supernatant was again subjected to the same centrifugation. The supernatant was subjected to 1 hour of centrifugation at 100,000×g, and the microsomes obtained were suspended in the same buffer and used in the test as a HepG2 squalene synthase fraction.
(2) Measurement of squalene synthase inhibiting activity
A dimethyl sulfoxide solution of each drug to be tested was added to a solution of the squalene synthase fraction prepared above (protein 10 ng, 50 mM Hepes buffer (pH 7.5)), 11 mM NaF, 5.5 mM MgCl2, 3 mM DTT, 1 mM NADPH, 1 mM pyrophosphate and 2.5 μM ^3 H-FPP, and the mixture was adjusted to a total volume of 0.2 ml and shaken at 30° C. for 20 minutes to effect the reaction. The reaction was terminated by adding 100 μl of 20% potassium hydroxide-50% ethanol solution, and the reaction solution was heated at 65° C. for 30 minutes. The un-saponified material was extracted with petroleum ether, and 1/3 volume thereof was subjected to measurement by a liquid scintillation counter. The ^3 H radioactivity of the un-saponified material was regarded as products down stream of squalene in the cholesterol biosynthesis system, and the squalene synthase inhibiting action was calculated by comparing ^3 H radioactivities of the test group and control group.
In addition, concentration of each compound of the present invention to inhibit 50% of squalene synthase (IC50 value) was obtained by calculation.

Series [2] in a line: Cholesterol lowering action in hamster. The following applies: male golden hamsters; 50 mg/kg in 0.5% methyl cellulose, administered by force; 5 days; blood 2 hours after final administration. It counts as in vivo. How it is done:
C. Cholesterol lowering action in hamster
Male golden hamsters (130 to 150 g) which have been treated by reversing night and day since 12 or more days before the commencement of administration were divided into groups 4 days before the administration in such a manner that the cholesterol value became the same among the groups. Each drug was prepared as a 0.5% methyl cellulose solution and administered by force in a dosage of 50 mg/kg. In this case, the liquid volume was 10 ml/kg.
The administration was carried out continuously for 4 days at around A.M. 11:00 under satiated condition and then on the fifth day after 16 hours of fasting. After 2 hours of the final administration, blood samples were collected from the abdominal vena cava under diethyl ether anesthesia and their cholesterol values were measured using an automatic analyzer (Hitachi 736).

The test system of series [3] is enzyme located at a downstream stage of the cholesterol biosynthesis system. The following applies: background art; cited from earlier work.

As usually defined, the IC50 is the concentration at which inhibition is half-maximal. For the compound `F/C(COc1ccc2c(c1)[nH]c1ccccc12)=C1/CN2CCC1CC2` [Example 1, (E)-3-[2-(Carbazol-2-yloxy)-1-fluoroethylidene]quinuclidine hydrochloride], the IC50 in series [1] (squalene synthase derived from human hepatoma (HepG2) cells, 2.5 μM 3H-FPP, 30° C., 20 minutes, read-out: IC50 value of squalene synthase inhibiting activity) is 79 nM. The “Lowering ratio (cholesterol)” value in series [2] is given as 57%.
`C(/COc1ccc2c(c1)[nH]c1ccccc12)=C1/CN2CCC1CC2.Cl` [Example 2, (Z)-3-[2-(Carbazol-2-yloxy)ethylidene]quinuclidine hydrochloride]: 59 nM corresponded to half-maximal inhibition in series [1] (IC50). In addition, the “Lowering ratio (cholesterol)” value in series [2] was 39%.
The corresponding values for `CN1c2ccccc2Sc2cc(COC3CN4CCC3CC4)ccc21.Cl` (stereo not shown) [Example 17, 3-(10-Methylphenothiazin-3-ylmethoxy)quinuclidine hydrochloride] are 85 nM and 46%.
In the case of `CCN(CC)CCOc1ccc(C(O)(Cc2ccc(Cl)cc2)c2ccc(C)cc2)cc1` (stereo not shown) [triparanol], the “desmosterol accumulation / cataracts” value in series [3] is given as “accumulates desmosterol which causes the cataracts”.
